Literature values in patent publication US12605432B2, “Combinations for antigen based therapy” (Diamyd Medical AB, priority 2014, dated 2026).
Read-outs that look alike come from different tables or passages of the source.

Key:
[1] = tested on: residual insulin secretion in T1D patients; details: in vivo
DCs = details: decreased CD40, CD80, CD86, low IL-12, enhanced IL-10 secretion
[2] = tested on: mouse islet allografts; autoimmune diabetes
[3] = tested on: B cells, dendritic cells and T cells
T1D in NOD mice = details: mouse, in vivo
[4] = tested on: blood glucose (BG) concentrations in patients; details: diabetic and nondiabetic patients in general clinical practice

## CC1=NS(=O)(=O)c2cc(Cl)ccc2N1 [diazoxide]
[1]
  effect of protective agents: no or transient effect

## C=C1/C(=C\C=C2/CCC[C@]3(C)[C@@H]([C@H](C)CCCC(C)(C)O)CC[C@@H]23)C[C@@H](O)C[C@@H]1O [1,25-Dihydroxyvitamin D(3)]
DCs
  DC phenotype: induces DCs with a tolerogenic phenotype
[2]; mouse
  tolerance to islet allografts: induced tolerance to mouse islet allografts
[2]; non-hypercalcemic doses
  diabetes development: inhibited diabetes development
[3]
  expression of IL-10 by dendritic cells and T cells: enhances
  expression of IgE by B cells: inhibits

## CC(C)Cc1ccc(C(C)C(=O)O)cc1 (stereo not shown) [ibuprofen]
Dendritic cells (DCs)
  expression level of total MHC molecules and co-stimulatory molecules on DCs: increased
  phagocytic activity of DCs: did not inhibit
Dendritic cells (DCs); dendritic cells
  MHC class I and class II-restricted presentation of antigen: inhibit MHC class I and class II-restricted presentation of antigen

## NC(=O)c1cccnc1 [nicotinamide]
[1]
  effect of protective agents: no or transient effect

## Cc1ccc(NC(=O)c2ccc(CN3CCN(C)CC3)cc2)cc1Nc1nccc(-c2cccnc2)n1 [imatinib]
Macrophage cultures
  IL-10 secretion: induced secretion of anti-inflammatory IL-10
T1D in NOD mice
  effect on T1D in NOD mice: prevented and reversed T1D

## CNC(=O)c1cc(Oc2ccc(NC(=O)Nc3ccc(Cl)c(C(F)(F)F)c3)cc2)ccn1 [sorafenib]
[4]
  blood glucose (BG): significant declines in BG

## FC(F)(F)c1ccc(CNc2ccc(Cc3c[nH]c4ncccc34)cn2)cc1 [PLX647]
T1D in NOD mice
  effect on T1D in NOD mice: only marginal efficacy

## Insulin: β cell specific auto-antigen
High risk individuals; oral administration
  prevention of diabetes: may have a slight effect
High risk individuals; parenteral administration (DPT)
  prevention of diabetes: no effect
